Assay results from paper PMC8595511 (Experimental eye research, 2021).

Experiments:
[1] = molecular target: T1, recombinant mouse retbindin (mRTBN, RTBDN) (Mus musculus, UniProt Q8QZY4); assay: bio-layer interferometry; assay type: binding; conditions: PBS
T1 sequence (Q8QZY4 32-247): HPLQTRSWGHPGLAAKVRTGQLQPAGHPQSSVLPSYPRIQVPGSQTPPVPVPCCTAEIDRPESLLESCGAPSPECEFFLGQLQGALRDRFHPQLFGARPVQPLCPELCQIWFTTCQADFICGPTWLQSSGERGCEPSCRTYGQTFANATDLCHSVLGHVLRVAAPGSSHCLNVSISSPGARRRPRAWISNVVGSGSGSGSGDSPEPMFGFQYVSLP

[2] = molecular target: Bovine Interphotoreceptor Retinoid Binding Protein (bIRBP) (Bos taurus, UniProt P12661); assay: bio-layer interferometry; conditions: PBS; ligand predissolved in DMSO, 1-10 μM
Sequence of Bovine Interphotoreceptor Retinoid Binding Protein (bIRBP) (P12661 23-1286): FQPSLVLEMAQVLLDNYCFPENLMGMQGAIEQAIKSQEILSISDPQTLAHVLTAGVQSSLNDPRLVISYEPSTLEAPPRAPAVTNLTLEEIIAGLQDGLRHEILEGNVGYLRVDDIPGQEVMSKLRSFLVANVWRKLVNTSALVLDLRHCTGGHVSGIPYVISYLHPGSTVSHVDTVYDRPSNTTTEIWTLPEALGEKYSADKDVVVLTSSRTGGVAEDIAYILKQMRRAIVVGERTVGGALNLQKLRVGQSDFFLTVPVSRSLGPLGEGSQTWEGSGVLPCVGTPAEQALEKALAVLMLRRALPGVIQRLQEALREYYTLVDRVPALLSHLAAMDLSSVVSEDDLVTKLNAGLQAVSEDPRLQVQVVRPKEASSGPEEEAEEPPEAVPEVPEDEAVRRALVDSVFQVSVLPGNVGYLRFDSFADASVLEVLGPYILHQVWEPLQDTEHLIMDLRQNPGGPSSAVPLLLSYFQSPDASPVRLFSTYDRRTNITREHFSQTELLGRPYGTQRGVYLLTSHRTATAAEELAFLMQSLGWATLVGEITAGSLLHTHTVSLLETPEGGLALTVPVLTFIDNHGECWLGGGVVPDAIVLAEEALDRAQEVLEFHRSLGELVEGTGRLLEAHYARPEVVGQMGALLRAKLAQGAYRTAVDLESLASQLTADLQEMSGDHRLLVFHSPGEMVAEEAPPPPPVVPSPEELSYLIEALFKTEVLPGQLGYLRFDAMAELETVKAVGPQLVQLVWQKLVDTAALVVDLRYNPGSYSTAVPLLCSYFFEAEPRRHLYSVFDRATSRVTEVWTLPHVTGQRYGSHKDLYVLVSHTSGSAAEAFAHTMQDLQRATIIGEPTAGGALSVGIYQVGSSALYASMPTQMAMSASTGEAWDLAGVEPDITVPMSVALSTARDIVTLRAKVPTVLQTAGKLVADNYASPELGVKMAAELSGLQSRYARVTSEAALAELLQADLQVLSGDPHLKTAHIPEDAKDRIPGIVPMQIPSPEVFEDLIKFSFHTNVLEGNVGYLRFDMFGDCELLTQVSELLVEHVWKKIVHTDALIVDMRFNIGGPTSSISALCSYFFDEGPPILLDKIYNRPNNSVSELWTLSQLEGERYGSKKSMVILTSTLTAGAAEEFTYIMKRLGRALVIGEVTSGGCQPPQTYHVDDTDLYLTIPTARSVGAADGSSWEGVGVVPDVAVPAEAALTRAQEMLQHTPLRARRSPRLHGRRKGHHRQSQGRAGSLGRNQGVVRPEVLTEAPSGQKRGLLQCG

| SMILES | Dissociation constant ([1]; 1-100 μM) | Dissociation constant [1] | other results |
| --- | --- | --- | --- |
| O=C1OC2(c3ccc(O)cc3Oc3cc(O)ccc32)c2ccccc21 [fluorescein, reference compound] | Dissociation constants for retinoids, flavins and fluorescein (as a control) on retbindin |  |  |
| CC1=C(/C=C/C(C)=C/C=C\C(C)=C\C(=O)O)C(C)(C)CCC1 [11-cis retinoic acid] |  | Dissociation constants for retinoids, flavins and fluorescein (as a control) on retbindin |  |
| CC1=C(/C=C/C(C)=C/C=C\C(C)=C\C=O)C(C)(C)CCC1 [11-cis retinal] |  |  | Dissociation constant ([1]; ligand predissolved in DMSO, 1-10 μM): the protein showed significant affinity for several retinoids, particularly for 11-cis retinal; Dissociation constant [2]: very similar to the well characterized 11-cis retinal transport protein IRBP |
| Cc1cc2nc3c(=O)[nH]c(=O)nc-3n(C[C@H](O)[C@H](O)[C@H](O)CO)c2cc1C [riboflavin] | Dissociation constants for retinoids, flavins and fluorescein (as a control) on retbindin |  |  |
| CC1=C(/C=C/C(C)=C\C=C\C(C)=C\C(=O)O)C(C)(C)CCC1 [9-cis retinoic acid] |  | Dissociation constants for retinoids, flavins and fluorescein (as a control) on retbindin |  |
| Cc1cc2nc3c(=O)[nH]c(=O)nc-3n(C[C@H](O)[C@H](O)[C@H](O)COP(=O)(O)O)c2cc1C [FMN] | Dissociation constants for retinoids, flavins and fluorescein (as a control) on retbindin |  |  |
| CC1=C(/C=C/C(C)=C/C=C/C(C)=C/C=O)C(C)(C)CCC1 [all trans retinal] |  | Dissociation constants for retinoids, flavins and fluorescein (as a control) on retbindin |  |
| CC1=C(/C=C/C(C)=C\C=C\C(C)=C\C=O)C(C)(C)CCC1 [9-cis retinal] |  | Dissociation constants for retinoids, flavins and fluorescein (as a control) on retbindin |  |
